Reference: the NIST ThermoML archive (doi:10.1016/j.jct.2013.01.008)

What was measured:
[1] = wn = mass fraction of the nth substance listed; settings: 101 kPa, Liquid; for mass density: Pycnometric method; for viscosity: Capillary tube (Ostwald / Ubbelohde) method
[2] = 101 kPa, Liquid; for viscosity: Capillary tube (Ostwald / Ubbelohde) method
[3] = mn = molality of the nth substance listed, in mol/kg; settings: 101 kPa, Liquid, m2 = 0; for viscosity: Capillary tube (Ostwald / Ubbelohde) method

O=C[C@H](O)[C@@H](O)[C@H](O)[C@H](O)CO [D-glucose] + O
[1]
Settings | mass density, w1 = 0.05 [kg/m3] | mass density, w1 = 0.1 [kg/m3] | mass density, w1 = 0.15 [kg/m3] | mass density, w1 = 0.2 [kg/m3] | viscosity, w1 = 0.05 [mPa·s] | viscosity, w1 = 0.1 [mPa·s] | viscosity, w1 = 0.15 [mPa·s] | viscosity, w1 = 0.2 [mPa·s]
293.15 K | 1016.28 | 1034.79 | 1053.29 | 1072.41 | – | – | – | –
298.15 K | 1014.69 | 1033.15 | 1051.61 | 1070.31 | 0.9767 | 1.12 | 1.316 | 1.67
303.15 K | 1013.08 | 1031.5 | 1049.92 | 1068.17 | 0.8605 | 0.9907 | 1.147 | 1.491
308.15 K | 1011.47 | 1029.84 | 1048.37 | 1065.97 | 0.7697 | 0.8844 | 1.018 | 1.345
313.15 K | 1009.85 | 1028.17 | 1046.62 | 1063.76 | 0.6945 | 0.7901 | 0.8925 | 1.21
318.15 K | – | 1026.48 | 1044.93 | 1061.52 | 0.6334 | 0.7223 | 0.8097 | 1.112

O [water]
[2]
Settings | viscosity [mPa·s]
298.15 K | 0.8903
303.15 K | 0.7973
308.15 K | 0.719
313.15 K | 0.6526
318.15 K | 0.5972

Settings | mass density [kg/m3]
[2], 308.15 K, Pycnometric method | 994.07

O [water] + C[C@@H](O)[C@H](N)C(=O)O
[3]
Settings | viscosity [mPa·s]
298.15 K | 0.8903
303.15 K | 0.7973
308.15 K | 0.719
313.15 K | 0.6526
318.15 K | 0.5972

Settings | mass density [kg/m3]
[3], 308.15 K, Pycnometric method | 994.07
